Results published in ChEMBL document CHEMBL1149992 (Bioorg Med Chem Lett, 1997).

Columns and labels:
Acetylcholinesterase [1] = biological target: T1, Acetylcholinesterase (Homo sapiens, UniProt P22303); experiment: In vitro selectivity towards Acetylcholinesterase relative to compound 1
Acetylcholinesterase [2] = biological target: T2, Acetylcholinesterase (Rattus norvegicus, UniProt P37136)
T2 sequence (P37136 whole entry): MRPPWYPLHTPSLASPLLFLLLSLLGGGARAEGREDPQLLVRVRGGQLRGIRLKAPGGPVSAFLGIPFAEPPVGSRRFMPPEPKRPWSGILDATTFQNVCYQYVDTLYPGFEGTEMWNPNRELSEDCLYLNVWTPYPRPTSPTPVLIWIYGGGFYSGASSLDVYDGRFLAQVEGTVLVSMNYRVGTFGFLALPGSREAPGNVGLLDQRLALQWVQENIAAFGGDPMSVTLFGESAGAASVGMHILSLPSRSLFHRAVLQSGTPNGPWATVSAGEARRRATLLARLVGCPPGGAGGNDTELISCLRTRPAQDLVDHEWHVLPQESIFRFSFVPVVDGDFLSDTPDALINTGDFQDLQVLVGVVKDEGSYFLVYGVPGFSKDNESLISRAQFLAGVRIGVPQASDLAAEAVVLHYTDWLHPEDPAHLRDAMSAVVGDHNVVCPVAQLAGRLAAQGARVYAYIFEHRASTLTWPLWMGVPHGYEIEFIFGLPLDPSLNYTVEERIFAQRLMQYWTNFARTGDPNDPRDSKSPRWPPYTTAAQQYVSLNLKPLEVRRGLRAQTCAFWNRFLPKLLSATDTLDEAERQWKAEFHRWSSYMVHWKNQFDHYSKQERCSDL
Description: Compound was tested in vitro for inhibitory activity against Acetylcholinesterase in rat cortex

Acetylcholinesterase [3] = biological target: T1, Acetylcholinesterase
Description: Compound was tested in vitro for inhibitory activity against Acetylcholinesterase

Butyrylcholinesterase = Butyrylcholinesterase (Rattus norvegicus, UniProt Q9JKC1)
Chain of Butyrylcholinesterase (Q9JKC1 whole entry): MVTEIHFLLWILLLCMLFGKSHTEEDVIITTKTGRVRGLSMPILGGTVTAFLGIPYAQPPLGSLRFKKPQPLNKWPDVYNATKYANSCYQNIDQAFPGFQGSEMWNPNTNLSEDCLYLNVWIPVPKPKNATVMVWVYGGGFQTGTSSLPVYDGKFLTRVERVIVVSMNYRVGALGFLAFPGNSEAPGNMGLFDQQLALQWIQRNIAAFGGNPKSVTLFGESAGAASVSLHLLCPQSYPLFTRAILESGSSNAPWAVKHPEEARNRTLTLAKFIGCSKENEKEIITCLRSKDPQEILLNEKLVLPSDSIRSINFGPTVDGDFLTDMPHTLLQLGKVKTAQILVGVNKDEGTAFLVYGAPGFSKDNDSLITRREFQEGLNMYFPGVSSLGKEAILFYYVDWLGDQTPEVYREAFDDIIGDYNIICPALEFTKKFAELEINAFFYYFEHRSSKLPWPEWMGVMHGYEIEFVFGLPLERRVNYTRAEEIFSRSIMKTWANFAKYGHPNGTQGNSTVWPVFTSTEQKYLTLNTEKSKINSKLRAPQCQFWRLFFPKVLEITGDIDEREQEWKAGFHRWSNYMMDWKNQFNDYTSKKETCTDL
Description: Compound was tested in vitro for inhibitory activity against Butyrylcholinesterase

T1 sequence (P22303 whole entry): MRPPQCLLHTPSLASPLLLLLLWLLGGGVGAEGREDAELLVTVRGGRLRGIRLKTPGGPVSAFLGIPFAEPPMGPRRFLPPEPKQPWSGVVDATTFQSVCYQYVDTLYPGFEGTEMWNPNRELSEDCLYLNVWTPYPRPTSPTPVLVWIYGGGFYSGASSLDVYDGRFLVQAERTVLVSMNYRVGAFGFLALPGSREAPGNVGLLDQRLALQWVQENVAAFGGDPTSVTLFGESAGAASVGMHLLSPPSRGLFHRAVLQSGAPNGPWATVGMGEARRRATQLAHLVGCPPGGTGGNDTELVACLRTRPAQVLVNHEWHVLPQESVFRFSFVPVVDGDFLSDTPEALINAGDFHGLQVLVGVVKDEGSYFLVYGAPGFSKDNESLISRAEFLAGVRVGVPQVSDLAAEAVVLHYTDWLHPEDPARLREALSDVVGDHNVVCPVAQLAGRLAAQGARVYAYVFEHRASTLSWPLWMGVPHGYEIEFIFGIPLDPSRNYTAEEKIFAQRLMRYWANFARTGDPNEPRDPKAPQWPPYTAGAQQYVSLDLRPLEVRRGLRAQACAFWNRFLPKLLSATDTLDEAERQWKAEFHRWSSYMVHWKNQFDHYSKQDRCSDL

| Structure (SMILES) | Relative Selectivity (Acetylcholinesterase [1]) | IC50 (Acetylcholinesterase [2]) [µM] | IC50 (Acetylcholinesterase [3]) [µM] | IC50 (Butyrylcholinesterase) [µM] |
| --- | --- | --- | --- | --- |
| Nc1cc(-c2ccccc2)nc2ccccc12 | 4.86 | > 100 | 11.5 | 12 |
| Nc1c2c(nc3ccccc13)-c1ccccc1CO2 | 0.13 | > 100 | 245 | 6.58 |
| Nc1c2c(nc3ccccc13)-c1ccccc1CS2 | 1.22 | > 100 | 18.6 | 4.9 |
| Nc1c2c(nc3ccccc13)-c1ccccc1CC2 | 1.83 | 4 | 2.98 | 1.18 |
| Nc1c2c(nc3ccccc13)-c1ccccc1C2 | 32.1 | 0.48 | 0.676 | 4.67 |
